For one experiment, the system named is E. coli CCUG^T. Kind of experiment: Chequerboard analysis with polymyxin E1 (average FIC index). In kind it is cell-based, Escherichia coli. The settings on record: compound + polymyxin E1.
A further experiment has as its system A. baumannii ATCC 17978. Described as above. It is filed as cell-based, Acinetobacter baumannii. Conditions: compound + polymyxin E1.
Experiment [1] has as its system Acinetobacter baumannii ATCC 17978. Kind of experiment: microbe, parasite or virus in culture. It is filed as cell-based. Conditions: A. baumannii ATCC 17978. The method, boiled down: (§1)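 MICs were determined by CLSI M07 broth dilution, for each compound alone and with a fixed sub-inhibitory concentration of polymyxin E1 (colistin). Potentiation fold is the MIC alone divided by the MIC with polymyxin E.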

For experiment [2], the system named is Klebsiella pneumoniae ATCC 13833. Kind of experiment: microbe, parasite or virus in culture. Conditions: K. pneumoniae ATCC 13833. It is filed as cell-based. The method, boiled down: as §1
For a further experiment, the system named is Escherichia coli CCUG^T. Kind of experiment: microbe, parasite or virus in culture. In kind it is cell-based. Conditions: E. coli CCUG^T. The method, boiled down: as §1
For a further experiment, the system named is K. pneumoniae ATCC 13833. Kind of experiment: Chequerboard analysis with polymyxin E1 (average FIC index). It is filed as cell-based, Klebsiella pneumoniae. Conditions: compound + polymyxin E1.
Experiment [3] deals with Bacillus subtilis ATCC 6633. Kind of experiment: MIC, broth microdilution (direct antibacterial activity). It is filed as cell-based. The settings on record: ATCC6633, B. subtilis ATCC 6633, compound alone, 18-24 h, read-out: MIC. The method, boiled down:
(§2)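 CLSI M07 broth microdilution in Mueller-Hinton broth, inoculum 5×10^5 CFU/mL, compound at 512 to 0.25 mg/L. Plates incubated 18-24 hours at 35±2 °C before MIC reading.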

The subject of experiment [4] is Enterococcus faecalis ATCC 29212. The experiment is described as above. In kind it is cell-based. Conditions: ATCC29212, E. faecalis ATCC 29212, compound alone, 18-24 h, read-out: MIC. The method, boiled down: as §2
Experiment [5] relates to Staphylococcus aureus ATCC 25923. The description is as above. It is filed as cell-based. The settings on record: ATCC25923, S. aureus ATCC 25923, compound alone, 18-24 h, read-out: MIC. The method, boiled down:
as §2

Experiment [6] deals with Streptococcus pyogenes ATCC 12344. Described as above. In kind it is cell-based. The settings on record: ATCC12344, S. pyogenes ATCC 12344, compound alone, 18-24 h, read-out: MIC. The essentials:
as §2

For experiment [7], the system named is polymyxin E1-resistant Acinetobacter baumannii (strain N50) clinical isolate. It is filed as cell-based. The settings on record: A. baumannii N50 (colistin-resistant); compound + polymyxin E1. As for the experimental part:
Growth inhibition or killing of bacteria was investigated using conventional methods widely described in the scientific literature. Parameters such as the Minimum Inhibitory Concentration (MIC) were determined as described in Clinical Laboratory Standard Institute (CLSI) document M07 “Methods for Dilution Antimicrobial Susceptibility Tests for Bacteria That Grow Aerobically, 11th Edition” (2018). Synergistic activity of the compounds described in the present specification were determined by measuring the variation of the MIC's compound in the absence and presence of a sub-inhibitory concentration of a suitable antibacterial agent, such as polymyxin E1. Furthermore, the Fractional Inhibitory Concentrations (FICs) were measured using a chequerboard analysis to determine the average FIC index (FICI), whose value is known to characterize the interaction between two compounds and/or drugs (≤0.5, synergistic interaction; >0.5 and <2, no interaction, additive effect; ≥2, antagonistic interaction). Furthermore, the selectivity of the compounds was investigated by measuring their cytotoxic effect on mammalian cell lines (e.g. HeLa cells).
“Chequerboard” method was used to further investigate the synergistic activity of pyrazolo[4,3-b]pyridin-6-carboxamides when this compounds are combined with polymyxin E1. […]

The mark [8] stands for this setting: ratio MICcompound/MICcompound+polymyxin E.
[9] abbreviates: with 0.25xMIC polymyxin E1 (0.12 mg/L).

On to `CCCCn1c(=O)c(C(=O)NC23CC4CC(CC(C4)C2)C3)c(O)c2nn(C)cc21` [Ib, N-(Adamantan-1-yl)-4-(1-butyl)-4,5-dihydro-7-hydroxy-2-methyl-5-oxo-2H-pyrazolo[4,3-b]pyridin-6-carboxamide], for which the “Average FIC index” value is 0.26 in the experiment with E. coli CCUG^T, 0.29 in the experiment on A. baumannii ATCC 17978, 0.30 in the experiment with K. pneumoniae ATCC 13833 and 0.30 in experiment [7]. Also, the Potentiation fold is reported as at least 128 in experiment [1] (setting [8]), at least 64 in experiment [2] (setting [8]) and at least 64 in the experiment on Escherichia coli CCUG^T (setting [8]). Moreover, the “MIC in presence of colistin” value was 4 µg/mL in [1] (with 0.25xMIC polymyxin E1 (0.25 mg/L)), 8 µg/mL in [2] (setting [9]) and 8 µg/mL in the experiment with Escherichia coli CCUG^T (setting [9]). Besides, the MIC in [1] (Acinetobacter baumannii, ATCC17978, compound alone, read-out: MIC) is over 512 µg/mL; in experiment [2] (Klebsiella pneumoniae, ATCC13833, compound alone, read-out: MIC) it was over 512 µg/mL; with Escherichia coli CCUG^T (Escherichia coli, compound alone, read-out: MIC), over 512 µg/mL; in experiment [3], 32 µg/mL; in experiment [4], 64 µg/mL; in experiment [5], 64 µg/mL. Also, the MIC in [6] is 16 µg/mL.

The record behind these values is US12358919B2, “Antibacterial compounds” (Universita' degli Studi di Siena, priority 2019, dated 2025).
